# Laboratory results reported in PubChem BioAssay (NCI).
#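 Tested at 5 concentrations; 48 h exposure; 96-well plates; endpoints linearly interpolated, else capped at highest concentration. At the TGI there is no net growth.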
# Key:
# Experiment in all cases: inhibition of tumour cell growth, NCI panel, 48 h
# 786-0 renal = test system: 786-0 renal
# A498 renal = test system: A498 renal
# A549 NSCLC = test system: A549 NSCLC
# ACHN renal = test system: ACHN renal
# CAKI-1 renal = test system: CAKI-1 renal
# CCRF-CEM leukemia = test system: CCRF-CEM leukemia
# COLO 205 colon = test system: COLO 205 colon
# DU-145 prostate = test system: DU-145 prostate
# EKVX NSCLC = test system: EKVX NSCLC
# HCC-2998 colon = test system: HCC-2998 colon
# HCT-116 colon = test system: HCT-116 colon
# HCT-15 colon = test system: HCT-15 colon
# HOP-62 NSCLC = test system: HOP-62 NSCLC
# HOP-92 NSCLC = test system: HOP-92 NSCLC
# HS 578T breast = test system: HS 578T breast
# HT29 colon = test system: HT29 colon
# IGROV1 ovarian = test system: IGROV1 ovarian
# K-562 leukemia = test system: K-562 leukemia
# KM12 colon = test system: KM12 colon
# LOX IMVI melanoma = test system: LOX IMVI melanoma
# M14 melanoma = test system: M14 melanoma
# MALME-3M melanoma = test system: MALME-3M melanoma
# MCF7 breast = test system: MCF7 breast
# MDA-MB-231 breast = test system: MDA-MB-231 breast
# MDA-MB-435 = test system: MDA-MB-435
# MDA-N = test system: MDA-N
# MOLT-4 leukemia = test system: MOLT-4 leukemia
# NCI-H226 lung = test system: NCI-H226 lung
# NCI-H23 lung = test system: NCI-H23 lung
# NCI-H460 lung = test system: NCI-H460 lung
# NCI-H522 lung = test system: NCI-H522 lung
# NCI/ADR-RES ovarian = test system: NCI/ADR-RES ovarian
# OVCAR-3 ovarian = test system: OVCAR-3 ovarian
# OVCAR-4 ovarian = test system: OVCAR-4 ovarian
# OVCAR-5 ovarian = test system: OVCAR-5 ovarian
# OVCAR-8 ovarian = test system: OVCAR-8 ovarian
# PC-3 prostate = test system: PC-3 prostate
# RPMI-8226 leukemia = test system: RPMI-8226 leukemia
# RXF 393 renal = test system: RXF 393 renal
# SF-268 CNS = test system: SF-268 CNS
# SF-295 CNS = test system: SF-295 CNS
# SF-539 CNS = test system: SF-539 CNS
# SK-MEL-2 melanoma = test system: SK-MEL-2 melanoma
# SK-MEL-28 melanoma = test system: SK-MEL-28 melanoma
# SK-MEL-5 melanoma = test system: SK-MEL-5 melanoma
# SK-OV-3 ovarian = test system: SK-OV-3 ovarian
# SN12C renal = test system: SN12C renal
# SNB-19 CNS = test system: SNB-19 CNS
# SNB-75 CNS = test system: SNB-75 CNS
# SR leukemia = test system: SR leukemia
# SW-620 colon = test system: SW-620 colon
# T-47D breast = test system: T-47D breast
# TK-10 renal = test system: TK-10 renal
# U251 CNS = test system: U251 CNS
# UACC-257 melanoma = test system: UACC-257 melanoma
# UACC-62 melanoma = test system: UACC-62 melanoma
# UO-31 renal = test system: UO-31 renal
# HL-60(TB) leukemia = test system: HL-60(TB) leukemia
smiles,measurement,setting,value
Cc1nc(Nc2ccc(Cl)cc2Cl)sc1C(=O)Nc1ccccc1,TGI,786-0 renal,> 100 µM
same,TGI,A498 renal,> 100 µM
same,TGI,A549 NSCLC,> 100 µM
same,TGI,ACHN renal,> 100 µM
same,TGI,CAKI-1 renal,> 100 µM
same,TGI,CCRF-CEM leukemia,> 100 µM
same,TGI,COLO 205 colon,> 100 µM
same,TGI,DU-145 prostate,> 100 µM
same,TGI,EKVX NSCLC,> 100 µM
same,TGI,HCC-2998 colon,> 100 µM
same,TGI,HCT-116 colon,> 100 µM
same,TGI,HCT-15 colon,> 100 µM
same,TGI,HOP-62 NSCLC,> 100 µM
same,TGI,HOP-92 NSCLC,> 100 µM
same,TGI,HS 578T breast,> 100 µM
same,TGI,HT29 colon,> 100 µM
same,TGI,IGROV1 ovarian,> 100 µM
same,TGI,K-562 leukemia,> 100 µM
same,TGI,KM12 colon,> 100 µM
same,TGI,LOX IMVI melanoma,> 100 µM
same,TGI,M14 melanoma,> 100 µM
same,TGI,MALME-3M melanoma,> 100 µM
same,TGI,MCF7 breast,> 100 µM
same,TGI,MDA-MB-231 breast,> 100 µM
same,TGI,MDA-MB-435,> 100 µM
same,TGI,MDA-N,> 100 µM
same,TGI,MOLT-4 leukemia,> 100 µM
same,TGI,NCI-H226 lung,17.4 µM
same,TGI,NCI-H23 lung,> 100 µM
same,TGI,NCI-H460 lung,> 100 µM
same,TGI,NCI-H522 lung,> 100 µM
same,TGI,NCI/ADR-RES ovarian,> 100 µM
same,TGI,OVCAR-3 ovarian,> 100 µM
same,TGI,OVCAR-4 ovarian,> 100 µM
same,TGI,OVCAR-5 ovarian,> 100 µM
same,TGI,OVCAR-8 ovarian,> 100 µM
same,TGI,PC-3 prostate,> 100 µM
same,TGI,RPMI-8226 leukemia,> 100 µM
same,TGI,RXF 393 renal,> 100 µM
same,TGI,SF-268 CNS,> 100 µM
same,TGI,SF-295 CNS,> 100 µM
same,TGI,SF-539 CNS,> 100 µM
same,TGI,SK-MEL-2 melanoma,> 100 µM
same,TGI,SK-MEL-28 melanoma,> 100 µM
same,TGI,SK-MEL-5 melanoma,> 100 µM
same,TGI,SK-OV-3 ovarian,> 100 µM
same,TGI,SN12C renal,> 100 µM
same,TGI,SNB-19 CNS,> 100 µM
same,TGI,SNB-75 CNS,> 100 µM
same,TGI,SR leukemia,> 100 µM
same,TGI,SW-620 colon,> 100 µM
same,TGI,T-47D breast,> 100 µM
same,TGI,TK-10 renal,> 100 µM
same,TGI,U251 CNS,> 100 µM
same,TGI,UACC-257 melanoma,> 100 µM
same,TGI,UACC-62 melanoma,> 100 µM
same,TGI,UO-31 renal,> 100 µM
CC(C)C(O)(C(=O)OCN1C(=O)C2C3C=CC(C2C1=O)C1C2C(=O)N(COC(=O)C(O)(C(C)C)C(C)O)C(=O)C2C31)C(C)O (stereo unspecified),TGI,786-0 renal,> 100 µM
same,TGI,A498 renal,> 100 µM
same,TGI,A549 NSCLC,> 100 µM
same,TGI,ACHN renal,> 100 µM
same,TGI,CAKI-1 renal,> 100 µM
same,TGI,CCRF-CEM leukemia,> 100 µM
same,TGI,COLO 205 colon,> 100 µM
same,TGI,DU-145 prostate,> 100 µM
same,TGI,EKVX NSCLC,> 100 µM
same,TGI,HCC-2998 colon,> 100 µM
same,TGI,HCT-116 colon,> 100 µM
same,TGI,HCT-15 colon,> 100 µM
same,TGI,HL-60(TB) leukemia,> 100 µM
same,TGI,HOP-62 NSCLC,> 100 µM
same,TGI,HS 578T breast,> 100 µM
same,TGI,HT29 colon,> 100 µM
same,TGI,IGROV1 ovarian,> 100 µM
same,TGI,K-562 leukemia,> 100 µM
same,TGI,KM12 colon,> 100 µM
same,TGI,M14 melanoma,> 100 µM
same,TGI,MALME-3M melanoma,> 100 µM
same,TGI,MCF7 breast,> 100 µM
same,TGI,MDA-MB-231 breast,> 100 µM
same,TGI,MDA-MB-435,> 100 µM
same,TGI,MDA-N,> 100 µM
same,TGI,MOLT-4 leukemia,> 100 µM
same,TGI,NCI-H226 lung,> 100 µM
same,TGI,NCI-H23 lung,> 100 µM
same,TGI,NCI-H460 lung,> 100 µM
same,TGI,NCI-H522 lung,> 100 µM
same,TGI,NCI/ADR-RES ovarian,> 100 µM
same,TGI,OVCAR-3 ovarian,> 100 µM
same,TGI,OVCAR-4 ovarian,> 100 µM
same,TGI,OVCAR-5 ovarian,> 100 µM
same,TGI,OVCAR-8 ovarian,> 100 µM
same,TGI,PC-3 prostate,> 100 µM
same,TGI,RPMI-8226 leukemia,> 100 µM
same,TGI,RXF 393 renal,> 100 µM
same,TGI,SF-268 CNS,> 100 µM
same,TGI,SF-295 CNS,> 100 µM
same,TGI,SF-539 CNS,> 100 µM
same,TGI,SK-MEL-2 melanoma,> 100 µM
same,TGI,SK-MEL-28 melanoma,> 100 µM
same,TGI,SK-MEL-5 melanoma,> 100 µM
same,TGI,SK-OV-3 ovarian,> 100 µM
same,TGI,SN12C renal,> 100 µM
same,TGI,SNB-19 CNS,> 100 µM
same,TGI,SNB-75 CNS,> 100 µM
same,TGI,SR leukemia,> 100 µM
same,TGI,SW-620 colon,> 100 µM
same,TGI,T-47D breast,> 100 µM
same,TGI,TK-10 renal,> 100 µM
same,TGI,U251 CNS,> 100 µM
same,TGI,UACC-62 melanoma,> 100 µM
same,TGI,UO-31 renal,> 100 µM
Cc1ccc(/C=C2\CN(C)CC3=C2NC(=S)NC3c2ccc(C)cc2)cc1 (stereo unspecified),TGI,786-0 renal,77.8 µM
same,TGI,A498 renal,> 100 µM
same,TGI,A549 NSCLC,> 100 µM
same,TGI,ACHN renal,> 100 µM
same,TGI,CAKI-1 renal,> 100 µM
same,TGI,CCRF-CEM leukemia,82.4 µM
same,TGI,COLO 205 colon,46 µM
same,TGI,DU-145 prostate,> 100 µM
same,TGI,EKVX NSCLC,> 100 µM
same,TGI,HCC-2998 colon,78.9 µM
same,TGI,HCT-116 colon,60.1 µM
same,TGI,HCT-15 colon,> 100 µM
same,TGI,HL-60(TB) leukemia,61.4 µM
same,TGI,HOP-62 NSCLC,> 100 µM
same,TGI,HOP-92 NSCLC,82.8 µM
same,TGI,HS 578T breast,> 100 µM
same,TGI,HT29 colon,80.4 µM
same,TGI,IGROV1 ovarian,> 100 µM
same,TGI,K-562 leukemia,56.9 µM
same,TGI,KM12 colon,39 µM
same,TGI,LOX IMVI melanoma,> 100 µM
same,TGI,M14 melanoma,> 100 µM
same,TGI,MALME-3M melanoma,> 100 µM
same,TGI,MCF7 breast,72.3 µM
same,TGI,MDA-MB-231 breast,> 100 µM
same,TGI,MDA-MB-435,28.1 µM
same,TGI,MDA-N,36.7 µM
same,TGI,NCI-H226 lung,> 100 µM
same,TGI,NCI-H23 lung,> 100 µM
same,TGI,NCI-H460 lung,> 100 µM
same,TGI,NCI-H522 lung,> 100 µM
same,TGI,NCI/ADR-RES ovarian,68 µM
same,TGI,OVCAR-3 ovarian,62.5 µM
same,TGI,OVCAR-4 ovarian,67.1 µM
same,TGI,OVCAR-5 ovarian,> 100 µM
same,TGI,OVCAR-8 ovarian,> 100 µM
same,TGI,PC-3 prostate,> 100 µM
same,TGI,RXF 393 renal,> 100 µM
same,TGI,SF-268 CNS,> 100 µM
same,TGI,SF-295 CNS,> 100 µM
same,TGI,SF-539 CNS,> 100 µM
same,TGI,SK-MEL-2 melanoma,> 100 µM
same,TGI,SK-MEL-28 melanoma,> 100 µM
same,TGI,SK-MEL-5 melanoma,> 100 µM
same,TGI,SK-OV-3 ovarian,> 100 µM
same,TGI,SN12C renal,> 100 µM
same,TGI,SNB-19 CNS,> 100 µM
same,TGI,SNB-75 CNS,68 µM
same,TGI,SW-620 colon,> 100 µM
same,TGI,T-47D breast,> 100 µM
same,TGI,U251 CNS,> 100 µM
same,TGI,UACC-257 melanoma,62 µM
same,TGI,UACC-62 melanoma,> 100 µM
same,TGI,UO-31 renal,> 100 µM
